Measured values: article PMC8426237, “A first-in-human phase I study of TAS0728, an oral covalent binding inhibitor of HER2, in patients with advanced solid tumors with HER2 or HER3 aberrations” (Investigational New Drugs, 2021)

Columns and labels:
[1] = Dose-limiting toxicities, 3 + 3 dose escalation, first cycle; assay type: in vivo, human; conditions: for Any DLTs / DLT: Grade ≥ 3 diarrhea only if lasting >48 h and unresponsive to intensive antidiarrheal medication: DLT-evaluable population; for Patients with DLT AEs: all treated population
Method: Based on preclinical toxicological studies and PK analysis, the starting dose of TAS0728 was 50 mg BID. Dose escalation followed a 3 + 3 dose-escalation scheme and planned to proceed using the following dose levels BID: 50 mg, 100 mg, 200 mg, 400 mg, 600 mg and 800 mg. TAS0728 was administered during a 21-day cycle.
If a DLT was identified at a particular dose level, de-escalation was made to an intermediate de-escalation dose level. […] The MTD was to be the dose level at which 0 of 6 or 1 of 6 patients experienced a DLT, with at least 2 patients experiencing DLTs at the next higher dose level. For the determination of the MTD, DLTs that occurred during the first cycle (i.e., first 21 days) of TAS0728 treatment were considered. Patients who experienced AEs were allowed two dose reductions during the study. TAS0728 treatment could be continued until disease progression, unacceptable toxicity, withdrawal of consent, or at the discretion of the investigator.

[2] = parameters: method as in PMID 30787176; conditions: efficacious doses in mouse models; cited from earlier work
[3] = human, in vivo
Method: A DLT was defined as a study treatment-related adverse event (TRAE), according to the Common Terminology Criteria for Adverse Events (CTCAE, Version 5.0), with qualifying criteria for certain DLTs (e.g., Grade ≥ 3 diarrhea, was included as a DLT only if lasting >48 h and unresponsive to intensive antidiarrheal medication).
Patients were closely monitored for these potential toxicities during the current study. Safety assessments included recording of AEs and serious AEs (SAEs) from the time of signing the study informed consent form to 30 days after the last dose of study medication. Safety parameters including laboratory evaluations (hematology, coagulation, chemistry, and urinalysis), vital sign measurements and body weight, electrocardiogram (ECG) recordings, ECOG performance status, echocardiogram or multi-gated acquisition (MUGA), and physical examination were assessed at screening, during the study and at 30 days following the last dose. The use of concomitant medications was permitted and details for such medications were recorded.

[4] = system: HER2 overexpressed cancer cells; parameters: method as in PMID 30787176; conditions: cited from earlier work
[5] = system: advanced solid tumors with HER2 or HER3 aberrations; test: Antitumor activity, objective tumor assessment by RECIST1.1; assay type: in vivo, human
Excerpt: Objective tumor assessments were made according to the revised response evaluation criteria in solid tumors [RECIST1.1] [8] from evaluation of magnetic resonance imaging (MRI)/computed tomography (CT) scans made at screening (baseline) and after every 2 cycles during the first 6 months of treatment with TAS0728, and after every 3 cycles of treatment thereafter.

[6] = system: xenograft models of tumors with acquired resistance to trastuzumab/pertuzumab or to T-DM1; parameters: method as in PMID 32248641; conditions: cited from earlier work

SMILES: C=CC(=O)N1CCC[C@@H](n2nc(C(=O)Nc3ccc(CC(=O)N(C)C)c(C)c3C)c3c(N)ncnc32)C1 [TAS0728]
- Any DLTs ([1]; 50 mg BID (N = 3)): 0 n, (%)
- DLT: Grade ≥ 3 diarrhea only if lasting >48 h and unresponsive to intensive antidiarrheal medication ([1]; 50 mg BID (N = 3)): 0 n, (%)
- Patients with DLT AEs ([1]; 50 mg BID (N = 3)): 0 n, (%)
- Any DLTs ([1]; 100 mg BID (N = 3)): 0 n, (%)
- DLT: Grade ≥ 3 diarrhea only if lasting >48 h and unresponsive to intensive antidiarrheal medication ([1]; 100 mg BID (N = 3)): 0 n, (%)
- Patients with DLT AEs ([1]; 100 mg BID (N = 3)): 0 n, (%)
- Any DLTs ([1]; 150 mg BID (N = 3)): 1 (33.3) n, (%)
- DLT: Grade ≥ 3 diarrhea only if lasting >48 h and unresponsive to intensive antidiarrheal medication ([1]; 150 mg BID (N = 3)): 1 (33.3) n, (%)
- Patients with DLT AEs ([1]; 150 mg BID (N = 6)): 1 (16.7) n, (%)
- DLTs observed (Grade 3 diarrhea lasting >48 h, not responsive to antidiarrheal treatment) ([1]; 200 mg BID): two
- Any DLTs ([1]; 200 mg BID (N = 6)): 2 (33.3) n, (%)
- DLT: Grade ≥ 3 diarrhea only if lasting >48 h and unresponsive to intensive antidiarrheal medication ([1]; 200 mg BID (N = 6)): 2 (33.3) n, (%)
- Patients with DLT AEs ([1]; 200 mg BID (N = 7)): 2 (28.6) n, (%)
- Patients with DLT AEs ([1]; Overall (N = 19)): 3 (15.8) n, (%)
- Any DLTs ([1]; Total (N = 15)): 3 (20.0) n, (%)
- DLT: Grade ≥ 3 diarrhea only if lasting >48 h and unresponsive to intensive antidiarrheal medication ([1]; Total (N = 15)): 3 (20.0) n, (%)
- Diarrhea during treatment [2]: did not induce diarrhea
- Patients with urinary tract infection [3]: 28.6%
- Inhibitory activity for overexpressed/amplified HER2 and mutated HER2 in cancer cells [4]: potent inhibitory activity
- Antiproliferative activity against HER2 overexpressed cancer cells ([4]; in vitro and in vivo): antiproliferative activity
- Time on treatment before disease progression, patient with PR (BTC, HER2 amplification) ([5]; 200 mg BID, no dose adjustment): 136 days
- Patients with disease control (best overall tumor response of PR or SD) ([5]; all dose levels): 10
- Objective responses (PR) ([5]; of 19 treated patients, NSCLC with HER2 mutation at 50 mg BID, BTC with HER2 amplification at 200 mg BID): two
- Anti-tumor effect [6]: significant anti-tumor effects
